Assays:
Format in all cases: cell-based
HeLa = experiment: MTT cytotoxicity assay, HeLa; conditions: Homo sapiens, 48 h, mean ± SD, three independent experiments
Procedure: (§1) The in vitro cytotoxic potency of DHAA acyl-thiourea derivatives 8a–8o and 9a–9o were evaluated by 3-(4,5-dimethylthiazol-2-yl)-2,5-diphenyltetrazolium bromide (MTT) assay against HeLa, SK-OV-3 and MGC-803 tumor cell lines, with 5-FU as the positive control.
(§2) General procedure for cytotoxic evaluation in vitro: HeLa, HepG2, SK-OV-3 and MGC-803 cells were seeded into 96-well microculture plates and allowed to adhere for 24 h, respectively. After cells were exposed to compounds at concentrations from 100 to 0.01 μM for 48 h, medium was aspirated and replenished with complete medium. IC50 was evaluated by MTT tetrazolium dye assay. Each experiment was performed three times; Statistical analysis: All statistical analysis was performed with SPSS Version 10 (SPSS, Chicago, IL, USA). Data was analyzed by one-way ANOVA. Mean separations were performed using the least significant difference method. Each experiment was replicated thrice, and all experiments yielded similar results. Measurements from all the replicates were combined, and treatment effects were analyzed.

SK-OV-3 = experiment: MTT cytotoxicity assay, SK-OV-3; conditions: Homo sapiens, 48 h, mean ± SD, three independent experiments
Procedure: as §1, §2

MGC-803 = experiment: MTT cytotoxicity assay, MGC-803; conditions: Homo sapiens, 48 h, mean ± SD, three independent experiments
Procedure: as §1, §2

HL-7702 = experiment: MTT cytotoxicity assay, HL-7702 normal cells; conditions: L02, 48 h, normal human cells, mean ± SD, three independent experiments
Procedure: [The source words this procedure for another cell line and reports this cell line under the same test.] as §1, §2

SMILES: CC(C)c1ccc2c(c1)CCC1[C@](C)(C(=O)NC(=S)N[C@H](Cc3ccccc3)C(=O)Nc3ccc(F)cc3)CCC[C@]21C (stereo partly drawn) [Compound 9i, (1R,4aS)-N-(((R)-1-((4-Fluorophenyl)amino)-1-oxo-3-phenylpropan-2-yl)carbamothioyl)-7-isopropyl-1,4a-dimethyl-1,2,3,4,4a,9,10,10a-octahydrophenanthrene-1-carboxamide]
- IC50 (HeLa): 23.7 ± 1.01 µM
- IC50 (SK-OV-3): 26.5 ± 2.07 µM
- IC50 (MGC-803): 21.4 ± 1.88 µM
- IC50 (HL-7702): 46.4 ± 2.44 µM

SMILES: COc1cc(NC(=O)[C@@H](C)NC(=S)NC(=O)[C@]2(C)CCC[C@]3(C)c4ccc(C(C)C)cc4CCC23)cc(OC)c1OC (stereo partly drawn) [Compound 8o, (1R,4aS)-7-Isopropyl-1,4a-dimethyl-N-(((R)-1-oxo-1-((3,4,5-trimethoxyphenyl)amino)propan-2-yl)carbamothioyl)-1,2,3,4,4a,9,10,10a-octahydrophenanthrene-1-carboxamide]
- IC50 (HeLa): 18.1 ± 1.23 µM
- IC50 (SK-OV-3): 29.6 ± 2.67 µM
- IC50 (MGC-803): 22.7 ± 1.77 µM
- IC50 (HL-7702): 49.2 ± 2.65 µM

SMILES: Cc1ccc(NC(=O)[C@@H](Cc2ccccc2)NC(=S)NC(=O)[C@]2(C)CCC[C@]3(C)c4ccc(C(C)C)cc4CCC23)cc1 (stereo partly drawn) [Compound 9c, (1R,4aS)-7-Isopropyl-1,4a-dimethyl-N-(((R)-1-oxo-3-phenyl-1-(p-tolylamino)propan-2-yl)carbamothioyl)-1,2,3,4,4a,9,10,10a-octahydrophenanthrene-1-carboxamide]
- IC50 (HeLa): 19.1 ± 1.08 µM
- IC50 (SK-OV-3): 16.2 ± 1.98 µM
- IC50 (MGC-803): 19.2 ± 1.66 µM
- IC50 (HL-7702): 36.2 ± 1.39 µM

SMILES: COc1ccc(NC(=O)[C@@H](C)NC(=S)NC(=O)[C@]2(C)CCC[C@]3(C)c4ccc(C(C)C)cc4CCC23)cc1 (stereo partly drawn) [Compound 8g, (1R,4aS)-7-Isopropyl-N-(((R)-1-((4-methoxyphenyl)amino)-1-oxopropan-2-yl)carbamothioyl)-1,4a-dimethyl-1,2,3,4,4a,9,10,10a-octahydrophenanthrene-1-carboxamide]
- IC50 (HeLa): 27.4 ± 2.43 µM
- IC50 (SK-OV-3): 26.8 ± 2.47 µM
- IC50 (MGC-803): 18.6 ± 1.72 µM
- IC50 (HL-7702): 43.6 ± 2.43 µM

SMILES: Cc1cc(C)cc(NC(=O)[C@@H](Cc2ccccc2)NC(=S)NC(=O)[C@]2(C)CCC[C@]3(C)c4ccc(C(C)C)cc4CCC23)c1 (stereo partly drawn) [Compound 9l, (1R,4aS)-N-(((R)-1-((3,5-Dimethylphenyl)amino)-1-oxo-3-phenylpropan-2-yl)carbamothioyl)-7-isopropyl-1,4a-dimethyl-1,2,3,4,4a,9,10,10a-octahydrophenanthrene-1-carboxamide]
- IC50 (HeLa): 15.8 ± 1.55 µM
- IC50 (SK-OV-3): 31.5 ± 2.23 µM
- IC50 (MGC-803): 18.1 µM
- IC50 (HL-7702): 53.4 ± 2.24 µM

SMILES: CC(C)c1ccc2c(c1)CCC1[C@](C)(C(=O)NC(=S)N[C@H](Cc3ccccc3)C(=O)Nc3ccc(Cl)cc3)CCC[C@]21C (stereo partly drawn) [Compound 9e, (1R,4aS)-N-(((R)-1-((4-Chlorophenyl)amino)-1-oxo-3-phenylpropan-2-yl)carbamothioyl)-7-isopropyl-1,4a-dimethyl-1,2,3,4,4a,9,10,10a-octahydrophenanthrene-1-carboxamide]
- IC50 (HeLa): 17.2 ± 1.25 µM
- IC50 (SK-OV-3): 18.5 ± 1.27 µM
- IC50 (MGC-803): 17.1 ± 2.87 µM
- IC50 (HL-7702): 38.5 ± 1.22 µM

SMILES: COc1ccccc1NC(=O)[C@@H](C)NC(=S)NC(=O)[C@]1(C)CCC[C@]2(C)c3ccc(C(C)C)cc3CCC12 (stereo partly drawn) [Compound 8f, (1R,4aS)-7-Isopropyl-N-(((R)-1-((2-methoxyphenyl)amino)-1-oxopropan-2-yl)carbamothioyl)-1,4a-dimethyl-1,2,3,4,4a,9,10,10a-octahydrophenanthrene-1-carboxamide]
- IC50 (HeLa): 28.1 ± 2.11 µM
- IC50 (SK-OV-3): 23 ± 3.01 µM
- IC50 (MGC-803): 17.9 ± 1.73 µM
- IC50 (HL-7702): 44.7 ± 3.34 µM

SMILES: Cc1ccccc1NC(=O)[C@@H](C)NC(=S)NC(=O)[C@]1(C)CCC[C@]2(C)c3ccc(C(C)C)cc3CCC12 (stereo partly drawn) [Compound 8b, (1R,4aS)-7-Isopropyl-1,4a-dimethyl-N-(((R)-1-oxo-1-(o-tolylamino)propan-2-yl)carbamothioyl)-1,2,3,4,4a,9,10,10a-octahydrophenanthrene-1-carboxamide]
- IC50 (HeLa): 29.2 ± 2.43 µM
- IC50 (SK-OV-3): 42.8 ± 1.42 µM
- IC50 (MGC-803): 19.2 ± 1.66 µM
- IC50 (HL-7702): 52.5 ± 1.25 µM

SMILES: Cc1ccccc1NC(=O)[C@@H](Cc1ccccc1)NC(=S)NC(=O)[C@]1(C)CCC[C@]2(C)c3ccc(C(C)C)cc3CCC12 (stereo partly drawn) [Compound 9b, (1R,4aS)-7-Isopropyl-1,4a-dimethyl-N-(((R)-1-oxo-3-phenyl-1-(o-tolylamino)propan-2-yl)carbamothioyl)-1,2,3,4,4a,9,10,10a-octahydrophenanthrene-1-carboxamide]
- IC50 (HeLa): 17.7 ± 1.34 µM
- IC50 (SK-OV-3): 18.5 ± 1.44 µM
- IC50 (MGC-803): 14.1 ± 1.12 µM
- IC50 (HL-7702): 38.6 ± 1.65 µM

SMILES: COc1cc(NC(=O)[C@@H](Cc2ccccc2)NC(=S)NC(=O)[C@]2(C)CCC[C@]3(C)c4ccc(C(C)C)cc4CCC23)cc(OC)c1OC (stereo partly drawn) [Compound 9o, (1R,4aS)-7-Isopropyl-1,4a-dimethyl-N-(((R)-1-oxo-3-phenyl-1-((3,4,5-trimethoxyphenyl)amino)propan-2-yl)carbamothioyl)-1,2,3,4,4a,9,10,10a-octahydrophenanthrene-1-carboxamide]
- IC50 (HeLa): 17.5 ± 1.54 µM
- IC50 (SK-OV-3): 29.3 ± 2.04 µM
- IC50 (MGC-803): 29.3 ± 2.09 µM
- IC50 (HL-7702): 59.3 ± 2.54 µM

SMILES: CC(C)c1ccc2c(c1)CCC1[C@](C)(C(=O)NC(=S)N[C@H](C)C(=O)Nc3ccccc3F)CCC[C@]21C (stereo partly drawn) [Compound 8h, (1R,4aS)-N-(((R)-1-((2-Fluorophenyl)amino)-1-oxopropan-2-yl)carbamothioyl)-7-isopropyl-1,4a-dimethyl-1,2,3,4,4a,9,10,10a-octahydrophenanthrene-1-carboxamide]
- IC50 (HeLa): 23.3 ± 1.55 µM
- IC50 (SK-OV-3): 31.8 ± 2.36 µM
- IC50 (MGC-803): 26.1 ± 2.37 µM
- IC50 (HL-7702): 53.5 ± 2.35 µM

SMILES: CC(C)c1ccc2c(c1)CCC1[C@](C)(C(=O)NC(=S)N[C@H](C)C(=O)Nc3ccc(Br)cc3)CCC[C@]21C (stereo partly drawn) [Compound 8k, (1R,4aS)-N-(((R)-1-((4-Bromophenyl)amino)-1-oxopropan-2-yl)carbamothioyl)-7-isopropyl-1,4a-dimethyl-1,2,3,4,4a,9,10,10a-octahydrophenanthrene-1-carboxamide]
- IC50 (HeLa): 19 ± 1.46 µM
- IC50 (SK-OV-3): 40.8 ± 3.57 µM
- IC50 (MGC-803): 30 ± 1.24 µM
- IC50 (HL-7702): 54.6 ± 3.65 µM

SMILES: CC(C)c1ccc2c(c1)CCC1[C@](C)(C(=O)NC(=S)N[C@H](Cc3ccccc3)C(=O)Nc3ccc(Br)cc3)CCC[C@]21C (stereo partly drawn) [Compound 9k, (1R,4aS)-N-(((R)-1-((4-Bromophenyl)amino)-1-oxo-3-phenylpropan-2-yl)carbamothioyl)-7-isopropyl-1,4a-dimethyl-1,2,3,4,4a,9,10,10a-octahydrophenanthrene-1-carboxamide]
- IC50 (HeLa): 15.7 ± 1.13 µM
- IC50 (SK-OV-3): 46.7 ± 4.76 µM
- IC50 (MGC-803): 25.5 ± 2.47 µM
- IC50 (HL-7702): 66.5 ± 4.48 µM

SMILES: CC(C)c1ccc2c(c1)CCC1[C@](C)(C(=O)NC(=S)N[C@H](C)C(=O)Nc3ccccc3Cl)CCC[C@]21C (stereo partly drawn) [Compound 8d, (1R,4aS)-N-(((R)-1-((2-Chlorophenyl)amino)-1-oxopropan-2-yl)carbamothioyl)-7-isopropyl-1,4a-dimethyl-1,2,3,4,4a,9,10,10a-octahydrophenanthrene-1-carboxamide]
- IC50 (HeLa): 19.7 ± 1.23 µM
- IC50 (SK-OV-3): 48.3 ± 4.21 µM
- IC50 (MGC-803): 20.6 ± 1.57 µM
- IC50 (HL-7702): 69.4 ± 4.23 µM

SMILES: CC(C)c1ccc2c(c1)CCC1[C@](C)(C(=O)NC(=S)N[C@H](C)C(=O)Nc3ccccc3)CCC[C@]21C (stereo partly drawn) [Compound 8a, (1R,4aS)-7-Isopropyl-1,4a-dimethyl-N-(((R)-1-oxo-1-(phenylamino)propan-2-yl)carbamothioyl)-1,2,3,4,4a,9,10,10a-octahydrophenanthrene-1-carboxamide]
- IC50 (HeLa): 31.1 ± 2.13 µM
- IC50 (SK-OV-3): 26.5 ± 2.53 µM
- IC50 (MGC-803): 28.5 ± 1.79 µM
- IC50 (HL-7702): 47.6 ± 2.43 µM

— article PMC4519859, “Synthesis and Biological Evaluation of Novel Dehydroabietic Acid Derivatives Conjugated with Acyl-Thiourea Peptide Moiety as Antitumor Agents” (International Journal of Molecular Sciences, 2015)
